# In publication PMC8308524, “Interaction between DNA, Albumin and Apo-Transferrin and Iridium(III) Complexes with Phosphines Derived from Fluoroquinolones as a Potent Anticancer Drug” (Pharmaceuticals, 2021):
# How the values were obtained:
# apo-transferrin (apo-Tf) = target: T1, apo-transferrin (apo-Tf) (Homo sapiens, UniProt P02787); test: Fluorescence quenching of apo-transferrin; type: binding; settings: apo-Tf 3.6 × 10^−6 M, 50 mM phosphate buffer pH 7.4, excitation 295 nm, Stern–Volmer
# T1 construct: purchased Sigma–Aldrich (Hamburg, Germany)
# Description: A solution of apo-Tf was titrated with increasing concentrations of all the tested compounds, and the fluorescence intensity of apo-Tf was monitored spectrophotometrically (Figure 9A; Supplementary Materials, Figures S6 and S7). At the same time, Ksv values were determined from Stern–Volmer plots (Figure 9B, Table 4).
# (§1) In order to confirm the quenching mechanism, the fluorescence quenching was analyzed according to Stern–Volmer in Equation (2):(2) I0/I=1+KsvC where I0 and I are the fluorescence intensities in the absence and presence of the quencher, respectively, KSV is the Stern–Volmer quenching constant, and [C] is the concentration of the quencher, respectively.
# Apo-transferrin (apo-Tf) solution was prepared by dissolving the solid protein in 50 mM of phosphate-buffered saline (PBS) (pH = 7.4), C (apo-Tf) ≈ 3,6 × 10^− 6 M. The solution of the Tf was titrated in different molar ratios (0.5, 1, 2, 3, 4, 5, 6, 7, 8, 9, and 10) by IrPCp, IrPNr, IrPSf, IrPLm with corresponding phosphines (dissolved in DMSO) and incubated for 1h with any portion from each of the investigated compounds. The final volume of DMSO was 2% in each sample. The excitation wavelength was equal to 295 nm. The spectra of circular dichroism were recorded using a spectropolarimeter JASCO J-715 (CD and MCD).
# [1] = target: T2, human serum albumin (HSA) (Homo sapiens, UniProt P02768); test: Fluorescence quenching of human serum albumin; type: binding; settings: 50 mM phosphate buffer pH 7.4, excitation 295 nm, Stern–Volmer
# T2 construct: purchased Sigma–Aldrich (Hamburg, Germany)
# Description: Interest in studying the interaction of metal ions and their compounds with blood plasma proteins, especially with serum albumin (HSA), the most abundant protein in plasma involved in the transport of drugs through the bloodstream, is increasing. This molecule has two main binding sites: site I is located in subdomain IIA and site II is located in subdomain IIIA. […] Changes in the appearance of the Trp-214 residue emission band in HSA, in the presence of the tested compounds, may indicate changes in the protein’s conformation, the association of its subunits or denaturation, or the binding of the compound to protein [53, 56].
# as §1
# Human serum albumin (HSA) was dissolved in 50 mM phosphate buffer saline (PBS) (pH = 7.4), C (HSA) ≈ 5 × 10^− 5 M. The solution of the HSA was titrated at different molar ratios (0.5, 1, 2, 3, 4, 5, 6, 7, 8, 9 and 10) by IrPCp, IrPNr, IrPSf, IrPLm and phosphine ligands (dissolved in DMSO) and incubated for 1 h with any portion from each of the investigated compounds. The final volume of DMSO was 2% in each sample. Afterward, substances were incubated with HSA solution for 1h at room temperature. The excitation wavelength was equal to 295 nm.
# CT DNA = test: Competitive fluorescence quenching of CT DNA-DAPI (minor groove binding); design: species or system calf; unit not given here; settings: extended Stern–Volmer plot
# Description: It is well known that the cytotoxic activity of various drugs (e.g., fluoroquinolones) depends on interaction with DNA [1]. […] Several well-known DNA binding dyes with well-established binding modes were used: ethidium bromide (EB; intercalation), 4′,6-diamidino-2-phenylindole (DAPI; binding to a minor groove), and methyl green (MG; binding to a major groove). The compounds that can bind to DNA more strongly than the above-mentioned binding dyes (EB, DAPI, or MG) reduce the DNA-binding dye emission due to the replacement of dye. The emission spectra of the CT DNA-binding dye complex were measured at different concentrations of the investigated compounds, (Figure 2; Supplementary Materials, Figures S1–S4).
# Furthermore, we conducted a similar competitive experiment using DAPI Figure 3, and Figures S2 and S3 in Supplementary Materials. […] The displacement of bound DAPI from its binding site on CT DNA is much stronger than when EB is used. In order to confirm the quenching mechanism, the fluorescence quenching was analyzed according to Stern–Volmer equations (Figure 3A) and KDSV (dynamic quenching constant) values, which are presented in Figure 3B. Based on Stern–Volmer plots (Figure 3A), the strength of CT DNA-DAPI fluorescence quenching formed the following order: IrPSf > IrPCp > IrPNr > IrPLm.
# The stock solution was prepared by dissolving of the calf thymus (CT DNA) in 50 mM phosphate buffer saline (PBS) (pH = 7.4). The CT DNA concentration (C = 5 × 10^−5 M) was determined by a UV spectrophotometer using the molar absorption coefficient […] at 258 nm. The stock solution was stored at 4 °C and used for > 6 days. The luminescent complexes of CT DNA with EB (ethidium bromide), DAPI (4′,6-diamidyno−2-fenyloindol), and MG (methyl green) were prepared by mixing the substrates in the equimolar ratio (CCT DNA-fluorescent dye = 5 × 10^−5 M; 50 mM of the phosphate buffer at pH = 7.4). The solution of the CT DNA fluorescent dye system was titrated in different molar ratios (0.5, 1, 2, 3, 4, 5, 6, 7, 8, 9, and 10) with the tested substances (dissolved in DMSO) and incubated for 1 h for each portion of the investigated compounds. The final concentration of DMSO was 2% in each sample. Photoluminescence measurements were recorded at 298 K using a Cary Eclipse Fluorescence Spectrophotometer. The excitation wavelength was 510 nm for the CT DNA-EB complex, 358 nm for the CT DNA-DAPI complex, and 633 nm for the CT DNA-MG complex. The Inner Filter Effect was considered and the corrected intensity of the emission band was calculated using Equation (1), where: Abs—absorbance at analyzed emission wavelength; If—uncorrected emission intensity. (1) Icor=If 2.303 Abs/ 1−10^Abs
# as §1
# In same case, it was clearly observed that both static and dynamic quenching occur simultaneously where a nonlinear curve is observed. In such cases, extended Stern–Volmer plots can be used to describe the new situation with the following Equation (3). (3) 1−(I/I0)/C=KDSV(I/I0) +V where I0 and I are the fluorescence intensities in the absence and presence of the quencher, respectively; KDSV is the dynamic quenching constant; [C] is the concentration of the quencher, and V is the volume of the sphere of action. We drew the plots of ([1 − (I/I0)]/[C]) versus I/I0. KDSV is the slope of the plot and the static quenching constant V is calculated from the intercept of the plot.
# pBR322 plasmid DNA = test: DNA strand break analysis by agarose gel electrophoresis; type: biochemical; settings: pBR322, 10 to 500 μM, 1 h, 4 h, 24 h
# Description: Since intercalation usually results in relatively large changes in the double helix structure, we assumed that all iridium(III) complexes cause severe DNA cleavage. The binding ability of iridium(III) complexes with another DNA model—pBR322 plasmid DNA, was studied by gel electrophoresis as a target. The degree of plasmid degradation, which is naturally present in a superhelical form (form I), to determine the ability of the compounds to induce single- and/or double-strand damage of the DNA was checked. This process can lead to the formation of the relaxed/nicked (form II) and linear (form III) forms. The degree of DNA degradation was determined in a wide range of the tested compounds’ concentrations (from 10 to 500 μM) at three different incubation times: 1 h, 4 h, and 24 h (Figure 4E1–E3).
# It was proven by cyclic voltamperometry, and fluorescence spectroscopy that the studied herein Ir(III) compounds can generate high levels of ROS, therefore the effect of additional H2O2 on the overall ROS production and the associated DNA damages caused by this radical pathway. Furthermore, to confirm the generation of particular types of ROS involved in plasmid degradation, the experiment using DMSO (effective scavenger of ^•OH), SOD (effective scavenger of O2^•−), [50] and NaN3 (effective scavenger of ^1O2) was performed. In order to exclude the effect of the hydrogen peroxide influence on plasmid DNA degradation, we performed an additional gel electrophoresis for H2O2 in different concentrations (Supplementary Materials, Figure S8).
# The ability of IrPCp, IrPNr, IrPSf, IrPLm, and phosphine ligands to induce single- or double-strand breaks in plasmid DNA was tested with the pBR322 plasmid (C = 0.5 mg/mL). All compounds were dissolved in DMF; the concentration was kept constant (10% by volume) in the final solution with/without hydrogen peroxide (H2O2, C = 50 μM), superoxide dismutase (SOD, C = 0.62 μM), dimethyl sulfoxide (DMSO, C = 1.4 mM), or sodium azide (NaN3, C = 40 mM). The reaction was also monitored after the addition of various groove binders: methyl green (MG, C = 10 mg/mL), and 4′,6-diamidino-2-phenylindole (DAPI, C = 5 mg/mL). After incubation for 1 h at 37°C, reaction mixtures (20 μL) were mixed with 3 μL of loading buffer (bromophenol blue in 30% glycerol) and loaded on 1% agarose gels, containing EB, in TBE buffer (90 Mm Tris–borate, […], pH = 8.0). Gel electrophoresis was performed at a constant voltage of 100V (4 Vcm-1) for 60 min. The gel was photographed and processed with a Digital Imaging System (Syngen Biotech, Wroclaw, Poland).
# T2 sequence (P02768 25-609): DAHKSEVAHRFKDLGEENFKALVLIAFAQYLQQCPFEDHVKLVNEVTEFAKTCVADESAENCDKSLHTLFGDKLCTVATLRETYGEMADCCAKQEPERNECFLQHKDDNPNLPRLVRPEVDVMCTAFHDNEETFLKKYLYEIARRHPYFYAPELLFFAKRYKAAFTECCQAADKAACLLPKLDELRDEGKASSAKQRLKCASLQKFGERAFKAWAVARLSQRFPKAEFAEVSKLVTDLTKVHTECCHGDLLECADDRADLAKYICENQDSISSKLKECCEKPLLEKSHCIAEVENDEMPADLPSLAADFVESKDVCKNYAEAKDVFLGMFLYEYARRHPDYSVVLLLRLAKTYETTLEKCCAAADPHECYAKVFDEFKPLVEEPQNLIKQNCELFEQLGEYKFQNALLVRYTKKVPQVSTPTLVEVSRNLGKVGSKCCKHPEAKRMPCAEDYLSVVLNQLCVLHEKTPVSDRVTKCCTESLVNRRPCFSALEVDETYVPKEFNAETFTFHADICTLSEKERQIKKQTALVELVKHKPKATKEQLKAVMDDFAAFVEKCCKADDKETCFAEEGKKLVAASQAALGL
# T1 sequence (P02787 20-698): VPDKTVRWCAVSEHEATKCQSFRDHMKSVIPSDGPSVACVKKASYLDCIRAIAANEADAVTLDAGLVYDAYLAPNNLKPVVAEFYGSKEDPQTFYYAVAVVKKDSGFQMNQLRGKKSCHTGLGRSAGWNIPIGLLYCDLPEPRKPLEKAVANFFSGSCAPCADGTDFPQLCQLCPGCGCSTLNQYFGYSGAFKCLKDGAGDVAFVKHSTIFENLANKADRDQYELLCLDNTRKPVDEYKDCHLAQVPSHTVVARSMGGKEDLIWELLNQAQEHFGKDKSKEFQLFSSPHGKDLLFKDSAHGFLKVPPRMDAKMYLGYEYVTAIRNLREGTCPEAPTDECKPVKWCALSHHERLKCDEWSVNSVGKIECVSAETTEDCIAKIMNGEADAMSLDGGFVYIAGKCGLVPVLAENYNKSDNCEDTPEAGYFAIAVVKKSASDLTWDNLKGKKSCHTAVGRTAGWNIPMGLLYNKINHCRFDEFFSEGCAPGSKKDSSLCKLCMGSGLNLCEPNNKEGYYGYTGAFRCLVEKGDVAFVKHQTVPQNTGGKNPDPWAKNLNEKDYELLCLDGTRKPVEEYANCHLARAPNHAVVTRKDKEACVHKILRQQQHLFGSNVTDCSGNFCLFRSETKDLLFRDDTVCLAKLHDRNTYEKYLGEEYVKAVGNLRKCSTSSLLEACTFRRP
structure (smiles),measurement,setting,value
CCn1cc(C(=O)O)c(=O)c2cc(F)c(N3CCN(CP(c4ccccc4)c4ccccc4)C(C)C3)c(F)c21 (stereo not drawn) [PLm],Ksv (apo-Tf fluorescence quenching),apo-transferrin (apo-Tf),152 M⁻¹
same,Ksv (HSA fluorescence quenching),[1],5.3 M⁻¹
"CCn1cc(C(=O)O)c(=O)c2cc(F)c(N3CCN(C[P+](c4ccccc4)(c4ccccc4)[Ir]([Cl])[Cl])CC3)cc21.Cc1c(C)c(C)[c-](C)c1C [IrPNr, Ir(η^5-Cp*)Cl2PNr]",Ksv (apo-Tf fluorescence quenching),apo-transferrin (apo-Tf),20200 M⁻¹
same,KDSV (dynamic quenching constant),CT DNA,1.72×10^3
same,"V (static quenching constant, volume of the sphere of action)",CT DNA,1.13×10^3
same,double-strand plasmid damage (formation of linear form III),pBR322 plasmid DNA,not presumably capable of double-strand plasmid damage
same,Ksv (HSA fluorescence quenching),[1],698000 M⁻¹
CCn1cc(C(=O)O)c(=O)c2cc(F)c(N3CCN(CP(c4ccccc4)c4ccccc4)CC3)cc21 [PNr],Ksv (apo-Tf fluorescence quenching),apo-transferrin (apo-Tf),45.6 M⁻¹
"Cc1c(C)c(C)[c-](C)c1C.O=C(O)c1cn(C2CC2)c2cc(N3CCN(C[P+](c4ccccc4)(c4ccccc4)[Ir]([Cl])[Cl])CC3)c(F)cc2c1=O [IrPCp, Ir(η^5-Cp*)Cl2PCp]",Ksv (apo-Tf fluorescence quenching),apo-transferrin (apo-Tf),21800 M⁻¹
same,KDSV (dynamic quenching constant),CT DNA,3.21×10^3
same,"V (static quenching constant, volume of the sphere of action)",CT DNA,2.21×10^3
same,double-strand plasmid damage (formation of linear form III),pBR322 plasmid DNA,not presumably capable of double-strand plasmid damage
same,Ksv (HSA fluorescence quenching),[1],2.08e+06 M⁻¹
CC1CN(c2c(F)c(N)c3c(=O)c(C(=O)O)cn(C4CC4)c3c2F)CC(C)N1CP(c1ccccc1)c1ccccc1 (stereo not drawn) [PSf],Ksv (apo-Tf fluorescence quenching),apo-transferrin (apo-Tf),11000 M⁻¹
"CC1CN(c2c(F)c(N)c3c(=O)c(C(=O)O)cn(C4CC4)c3c2F)CC(C)N1C[P+](c1ccccc1)(c1ccccc1)[Ir]([Cl])[Cl].Cc1c(C)c(C)[c-](C)c1C (stereo not drawn) [IrPSf, Ir(η^5-Cp*)Cl2PSf]",Ksv (apo-Tf fluorescence quenching),apo-transferrin (apo-Tf),13200 M⁻¹
same,KDSV (dynamic quenching constant),CT DNA,3.62×10^3
same,"V (static quenching constant, volume of the sphere of action)",CT DNA,2.42×10^3
same,double-strand plasmid damage (formation of linear form III),pBR322 plasmid DNA,not presumably capable of double-strand plasmid damage
same,Ksv (HSA fluorescence quenching),[1],5.67e+06 M⁻¹
"CCn1cc(C(=O)O)c(=O)c2cc(F)c(N3CCN(C[P+](c4ccccc4)(c4ccccc4)[Ir]([Cl])[Cl])C(C)C3)c(F)c21.Cc1c(C)c(C)[c-](C)c1C (racemic) [IrPLm, Ir(η^5-Cp*)Cl2PLm]",Ksv (apo-Tf fluorescence quenching),apo-transferrin (apo-Tf),19900 M⁻¹
same,KDSV (dynamic quenching constant),CT DNA,2.19×10^3
same,"V (static quenching constant, volume of the sphere of action)",CT DNA,1.45×10^3
same,double-strand plasmid damage (formation of linear form III),pBR322 plasmid DNA,not presumably capable of double-strand plasmid damage
same,Ksv (HSA fluorescence quenching),[1],5.06e+06 M⁻¹
